Assays:
[1] = test system: monocrotaline (MCT)-induced PH rats; experiment: Anti-pulmonary hypertension pharmacodynamics; assay type: in vivo, Sprague-Dawley rats
Protocol: Four-week-old male SPF Sprague-Dawley rats (weighing 220 ± 10 g) were purchased from Sporford Biotechnology Co., Ltd. (Beijing, China). and were randomly divided into cages (four rats per cage) and acclimatized for at least three days with free access to food and water.
Anti-PH pharmacodynamics were carried out using monocrotaline (MCT)-induced PH rats. Thirty rats were randomly divided into five groups: (A) control group; (B) model group; and three treatment groups (C) Wog group; (D) Wog+Alop group; and (E) Wog-Alop group. MCT was administered by a single femoral vein injection to induce PH. All administered groups of drugs were intragastrically administered from days 1 to 21 at a theoretical dose of 5 mg/kg/day for Wog. After three weeks of administration, the rats were weighed and anesthetized with 20% urethane. The electrocardiogram and right ventricular systolic pressure (RVSP) of rats were measured. The rats were perfused, and the heart and lung tissues were completely removed. The right ventricle (RV) and left ventricle plus ventricular septum (LV + S) were accurately separated and weighted, and the right ventricular hypertrophy index (RVHI) = RV/(LV + S) × 100%, RV mass index (RVMI) = RV/body weight × 100% and lung mass index (LMI) = lung weight/body weight × 100% were calculated. […] Heart tissues were taken for H&E and Masson staining, and lung tissues were stained with resorcinol basic fuchsin and proliferating cell nuclear antigen (PCNA) immunofluorescence.

PDGF-BB-induced PASMCs [2] = experiment: Measurement of oxidative stress markers (MDA, GSH, CAT, GPx kits); assay type: cell-based, Human; details: 3 μM, vs. model group
Protocol: Human PASMCs ([…], Cat. No.: CYH0707) were purchased from Wuhan Enji Life Technology Co., Ltd. (Wuhan, China) […] were cultured in Dulbecco's Modified Eagle Medium (DMEM) medium with 10% fetal bovine serum (FBS) and 1% penicillin/streptomycin (P/S), and maintained in a humidified 5% CO2 incubator at 37 °C. Prior to drug treatment, […] were subjected to serum starvation by culturing in a maintenance medium containing 0.5% FBS for 24 h to synchronize cell cycle progression. […] After 1 h, cells were stimulated with 40 ng/mL PDGF-BB for 48 h in each group except the control group. The levels of MDA and glutathione (GSH), as well as the activities of CAT and glutathione peroxidase (GPx) in cells, were measured using commercial assay kits. The treated PASMCs were collected and lysed with protein lysis buffer following the manufacturer's instructions.

PDGF-BB-induced PASMCs [3] = experiment: ROS detection (DCFH-DA probe); assay type: cell-based, Human; details: 3 μM, 40 ng/mL PDGF-BB for 48 h, DCFH-DA fluorescence, vs. model group
Protocol: Human PASMCs ([…], Cat. No.: CYH0707) were purchased from Wuhan Enji Life Technology Co., Ltd. (Wuhan, China) […] were cultured in Dulbecco's Modified Eagle Medium (DMEM) medium with 10% fetal bovine serum (FBS) and 1% penicillin/streptomycin (P/S), and maintained in a humidified 5% CO2 incubator at 37 °C. Prior to drug treatment, […] were subjected to serum starvation by culturing in a maintenance medium containing 0.5% FBS for 24 h to synchronize cell cycle progression. […] After 1 h, cells were stimulated with 40 ng/mL PDGF-BB for 48 h in each group except the control group. […] After treatment, cells were loaded with 1 μM 2',7'-dichlorodihydrofluorescein diacetate (DCFH-DA) probe for 20 min at 37 °C in the dark. Nuclei were counterstained with Hoechst 33342 Live Cells Staining Solution (1:100 dilution) for 10 min. Fluorescent imaging was performed using a laser scanning confocal microscope (Leica TCS SP8, Wetzlar, Germany) with excitation/emission settings at 488/525 nm for DCFH-DA and 350/461 nm for Hoechst 33342. ROS-associated fluorescence intensity was quantified using ImageJ 4.4 software.

[4] = Pharmacokinetic study after intragastric administration; assay type: in vivo; details: male, Sprague-Dawley, rat, po, rats, 5 mg/kg as wogonin, plasma
Protocol: Four-week-old male SPF Sprague-Dawley rats (weighing 220 ± 10 g) were purchased from Sporford Biotechnology Co., Ltd. (Beijing, China). and were randomly divided into cages (four rats per cage) and acclimatized for at least three days with free access to food and water. This study was performed with the approval of the Ethics Review Committee for Laboratory Animals of Beijing University of Chinese Medicine (approval number: BUCM-2023032307-1148) and strictly adhered to the relevant guidelines. Laboratory animal license No.: SCXK (Jing) 2019-0010; Laboratory unit use license No.: SYXK (Jing) 2020-0033.
Twenty-four SD rats were randomly divided into three groups of eight rats each. After 3 days of adaptive feeding, they were fasted (free access to water) for 12 h. On the morning of the fourth day, wogonin, Wog+Alop, and Wog-Alop were intragastrically administered at a theoretical dose of 5 mg/kg for wogonin. Plasma samples were collected into heparinized tubes from the oculi choroideae vein at 0, 5, 10, 15, 30, 45, and 60 min and 2, 4, 6, 8, 12, 24, 32, and 48 h after administration. Plasma samples were separated by centrifugation and stored at −80 °C until determination. Ultra-Performance Liquid Chromatography-Tandem Triple Quadrupole Mass Spectrometry (UPLC-QQQ-MS) multi-response monitoring (MRM) mode was used to determine plasma samples, and Masslynx 4.1 was used to calculate plasma drug concentrations at each collection time point. The plasma concentration versus time plots were drawn, and the pharmacokinetic parameters were calculated by DAS 2.1 software. The relative oral bioavailability (RB) was calculated using the following formula: […]

[5] = In vitro dissolution in distilled water (UPLC); assay type: physicochemical; details: 37.0 °C, 100 rpm
Protocol: The wogonin, physical mixture of wogonin and aloperine (Wog+Alop), and Wog-Alop with the theoretical drug content of 6.00 mg were accurately weighed and placed into 200 mL conical flasks containing 90 mL of distilled water at 37.0 °C and 100 rpm. A total of 2 mL of sample solution was withdrawn at predetermined time points (0, 1, 2, 3, 4, 5, 6, 7, 8, 9, 10, 15, 30, 45, and 60 min) and an equal volume of distilled water was immediately supplemented. The sample solutions were filtered through a 0.22 μm microporous membrane and determined by Ultra Performance Liquid Chromatography (UPLC).

PDGF-BB-induced PASMCs [6] = experiment: Cell viability (CCK-8) assay, abnormal proliferation; assay type: cell-based, Human; details: 3 μM, 40 ng/mL PDGF-BB for 48 h, CCK-8, vs. model group
Protocol: Human PASMCs ([…], Cat. No.: CYH0707) were purchased from Wuhan Enji Life Technology Co., Ltd. (Wuhan, China) […] were cultured in Dulbecco's Modified Eagle Medium (DMEM) medium with 10% fetal bovine serum (FBS) and 1% penicillin/streptomycin (P/S), and maintained in a humidified 5% CO2 incubator at 37 °C. Prior to drug treatment, […] were subjected to serum starvation by culturing in a maintenance medium containing 0.5% FBS for 24 h to synchronize cell cycle progression. […] After 1 h, cells were stimulated with 40 ng/mL PDGF-BB for 48 h in each group except the control group. Cell viability was assessed using the Cell Counting Kit-8 (CCK-8) assay according to the manufacturer's protocol. Briefly, 10 μL of CCK-8 reagent was added to each well of pretreated PASMCs, followed by incubation at 37 °C under 5% CO2 for 2-h. The absorbance of each sample was quantified at 450 nm using a microplate reader.

[7] = intragastric 5 mg/kg/day as Wog, days 1 to 21, vs. model group

Structure (SMILES) | thickening of the medial wall of small pulmonary artery vessels ([1]; 5 mg/kg/day as Wog, 21 days, resorcinol basic fuchsin staining, vs. model group) | P-wave duration [1, 7] | RVHI (right ventricular hypertrophy index) [1, 7] | RVMI (RV mass index) [1, 7] | RVSP (right ventricular systolic pressure) [1, 7] | increase in MDA levels (PDGF-BB-induced PASMCs [2]) | reduction in CAT activity (PDGF-BB-induced PASMCs [2]) | reduction in GPx activity (PDGF-BB-induced PASMCs [2]) | reduction in GSH levels (PDGF-BB-induced PASMCs [2]) | ROS levels (PDGF-BB-induced PASMCs [3]) | AUC(0-inf) ([4]; n = 8) [µg·h/mL] | AUC(0-t) ([4]; n = 8) [µg·h/mL] | Cmax ([4]; n = 8) [µg/mL] | Tmax ([4]; n = 8) [h] | MRT last ([4]; n = 8, read-out: MRT(0–t)) [h] | MRT inf ([4]; n = 8, read-out: MRT(0–∞)) [h] | half-life ([4]; n = 8, read-out: t1/2z (converted)) [h] | percentage of dissolution [5] [%] | inhibition of abnormal proliferation of PDGF-BB-induced PASMC (PDGF-BB-induced PASMCs [6])
COc1c(O)cc(O)c2c(=O)cc(-c3ccccc3)oc12 [Wogonin] | inhibit the thickening | significantly reduce | not statistically significant | not statistically significant | reduced RVSP, although without statistical significance | significantly inhibited | significantly inhibited | significantly inhibited | significantly inhibited | Neither Wog nor Alop alone showed notable inhibitory effects | 0.077 ± 0.0806 | 0.0491 ± 0.0421 | 0.0148 ± 0.0122 | 1.93 ± 3.41 | 5.97 ± 4.79 | 12.5 ± 17.5 | 7.21 ± 9.97 | 2.17 | almost no inhibitory effects
C1=C2CCCN[C@H]2[C@@H]2C[C@H]1[C@H]1CCCCN1C2 [Alop, aloperine] |  | significantly reduce | not statistically significant | not statistically significant |  | significantly inhibited | significantly inhibited | significantly inhibited | significantly inhibited | Neither Wog nor Alop alone showed notable inhibitory effects |  |  |  |  |  |  |  |  | almost no inhibitory effects

— publication PMC12196166, “Mechanistic Insight into the Enhanced Anti-Pulmonary Hypertension Efficacy of Wogonin Co-Amorphous” (Pharmaceutics, 2025)
